The values that follow come from patent publication US20080146555A1, “Uses of Kinase Inhibitors and Compositions Thereof” (GPC Biotech, Inc, priority 2004, published 2008).

In experiment [1] the target is T1, Yes (Homo sapiens, UniProt P07947).
T1 construct: purchased Upstate 14-478
Kind of experiment: Yes kinase assay. Type of experiment: biochemical. How it is done: • 1. 2.5× Reaction Buffer: 20 mM MOPS, 0.5 mM EDTA. • 2. Enzyme Dilution Buffer (EDB): 20 mM MOPS pH 7.0, 1 mM EDTA, 0.01% Brij-35, 5% glycerol, 0.1% β-mercaptoethanol, 1 mg/ml BSA. • 3. Yes, active: Dilute to 0.4 ng-4 ng/μl with EDB. Use 2.5 μl per assay point. • 4. Poly(Glu-4-Tyr) substrate: Prepare a 1 mg/ml stock solution. Use 2.5 μl per assay point for a final concentration of 0.1 mg/ml per assay point. • 5. [γ-^32P]ATP: Stock 1 mCi/100 μl (3000 Ci/mmol, obtained from PerkinElmer, Cat. # BLU002A). Make 10 μl aliquots (100 μCi/vial). Before starting the assay, dilute an aliquot to 1 μCi/μl with 90 μl of 75 mM MgCl2 and 500 μM cold ATP in 20 mM MOPS, pH 7.2, 25 mM β-glycerol phosphate, 5 mM EGTA, 1 mM sodium orthovanadate, 1 mM dithiothreitol.
• 1. Add 10 μl of 2.5× Reaction Buffer per assay. • 2. Add 2.5 μl of Poly(Glu-4-Tyr) substrate (0.1 mg/ml). • 3. Add 2.5 μl of Yes, active (1 ng-10 ng). • 4. Add […] of the diluted [γ-^32P]ATP solution. • 5. Incubate for 10 minutes at 30° C. • 6. Transfer a 20 μl aliquot onto the center of a 2 cm×2 cm P81 paper. • 7. Wash the assay squares three times for 5 minutes with 0.75% phosphoric acid. • 8. Wash the assay squares once for 5 minutes with acetone. • 9. Transfer the assay squares to vial and add 5 ml scintillation cocktail. • 10. Read in scintillation counter. Compare cpm of enzyme samples to cpm of control samples that contain background control.

In experiment [2] the target is T2, Lyn (Homo sapiens, UniProt P07948).
T2 construct: purchased Upstate 14-510
Kind of experiment: Lyn kinase assay. It counts as biochemical. How it is done:
• 1. 10× Reaction Buffer: 500 mM Tris-HCl, pH 7.5, 1 mM EGTA, 1 mM sodium orthovanadate, 1% 2-mercaptoethanol. • 2. Enzyme Dilution Buffer (EDB): 50 mM Tris-HCl, pH 7.5, 1 mM EGTA, 0.1 mM sodium orthovanadate, 0.03% Brij-35, 0.1% 2-mercaptoethanol, 1 mg/ml BSA. • 3. Lyn, active: Dilute to 2-16 ng/μl with EDB. Use 2.5 μl per assay point. • 4. Poly(Glu-4-Tyr) (4:1): Prepare a 1 mg/ml stock. Use 2.5 μl per assay point for a final concentration of 0.1 mg/ml per assay point. • 5. [γ-^32P]ATP: Stock 1 mCi/100 μl (3000 Ci/mmol, obtained from PerkinElmer, Cat. # BLU002A). Make 10 μl aliquots (100 μCi/vial). Before starting the assay, dilute an aliquot to 1 μCi/μl with 90 μl of 75 mM MgCl2 and 500 μM cold ATP in 20 mM MOPS, pH 7.2, 25 mM β-glycerol phosphate, 5 mM EGTA, 1 mM sodium orthovanadate, 1 mM dithiothreitol.
• 1. Add 2.5 μl of 10× Reaction Buffer per assay. • 2. Add 2.5 μl of Poly (Glu-4-Tyr) (4:1). • 3. Add 2.5 μl (5-40 ng) Lyn, active. • 4. Add 7.5 μl of sterile, distilled water. • 5. Add 10 μl of the diluted [γ-^32P]ATP mixture. • 6. Incubate for 10 minutes at 30° C. • 7. Transfer a 20 μl aliquot onto the center of a 2 cm×2 cm P81 paper. • 8. Wash the assay squares three times for 5 minutes with 0.75% phosphoric acid. • 9. Wash the assay squares once for 5 minutes with acetone. • 10. Transfer the assay squares to vial and add 5 ml scintillation cocktail. • 11. Read in scintillation counter. Compare cpm of enzyme samples to cpm of control samples that contain background control.

For experiment [3], the system named is normal human fibroblast, IMR90. As to the kind of experiment: Calcein AM viability assay, IMR90. The following applies: IMR-90, text b600. Type of experiment: cell-based. The procedure, abridged: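 Cells (HCT-116 1,000, IMR90 4,000 per well) adhered overnight, then received 7 doses from 0 to 250 nM for 72 h at 37 °C. Viability read as calcein fluorescence after 75 min with Calcein AM; IC50 values, with protein-adjusted values also obtained in HCT-116.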

Where [4] appears, read: read-out: YES1 Inhibition (IC50).
The mark [5] stands for this setting: read-out: LYN Inhibition (IC50).

What is called IC50 is the concentration that inhibits the measured activity by half.

Counter-ions that a name gives are not always drawn. Like-named read-outs stand apart in the source and are kept apart here.

T1 sequence (P07947 whole entry): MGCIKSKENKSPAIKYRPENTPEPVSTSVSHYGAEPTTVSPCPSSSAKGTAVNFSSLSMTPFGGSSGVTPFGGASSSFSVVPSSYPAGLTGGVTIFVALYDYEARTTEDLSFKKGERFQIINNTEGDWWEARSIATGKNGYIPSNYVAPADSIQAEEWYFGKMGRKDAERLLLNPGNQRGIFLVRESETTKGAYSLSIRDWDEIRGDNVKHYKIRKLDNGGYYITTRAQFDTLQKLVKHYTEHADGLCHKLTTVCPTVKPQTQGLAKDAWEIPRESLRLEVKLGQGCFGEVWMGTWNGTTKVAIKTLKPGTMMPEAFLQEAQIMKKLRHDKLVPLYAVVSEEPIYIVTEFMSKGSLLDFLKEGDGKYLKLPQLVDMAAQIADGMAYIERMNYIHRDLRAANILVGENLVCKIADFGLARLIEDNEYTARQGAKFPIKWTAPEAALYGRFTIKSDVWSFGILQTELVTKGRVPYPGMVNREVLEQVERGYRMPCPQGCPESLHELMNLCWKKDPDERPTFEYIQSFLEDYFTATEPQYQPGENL
T2 sequence (P07948 whole entry): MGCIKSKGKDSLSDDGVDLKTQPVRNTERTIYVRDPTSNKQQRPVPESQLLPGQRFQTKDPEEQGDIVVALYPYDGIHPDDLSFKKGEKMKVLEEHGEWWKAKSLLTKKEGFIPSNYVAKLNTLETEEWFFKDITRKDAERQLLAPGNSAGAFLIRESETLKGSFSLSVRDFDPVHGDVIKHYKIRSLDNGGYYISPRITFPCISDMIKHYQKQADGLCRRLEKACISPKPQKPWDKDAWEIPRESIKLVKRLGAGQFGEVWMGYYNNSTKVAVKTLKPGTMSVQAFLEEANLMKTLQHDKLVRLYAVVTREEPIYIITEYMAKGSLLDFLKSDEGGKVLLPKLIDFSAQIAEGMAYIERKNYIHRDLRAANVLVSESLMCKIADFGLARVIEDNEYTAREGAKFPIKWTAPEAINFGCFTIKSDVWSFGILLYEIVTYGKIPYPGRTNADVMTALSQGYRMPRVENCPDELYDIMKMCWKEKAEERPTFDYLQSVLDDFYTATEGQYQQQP

With `CC(C)N1CCN(C(=O)COc2ccc(-c3n[nH]c4c3C(=O)c3c(NC(=O)NN5CCOCC5)cccc3-4)cc2)CC1` [Compound A37], the IC50 in experiment [1] (setting [4]), in experiment [2] (setting [5]) and in experiment [3] was < 50 nM in each case.

For the compound `COCCN1CCN(Cc2ccc(-c3n[nH]c4c3C(=O)c3c(NC(=O)NN5CCOCC5)cccc3-4)cc2)CC1` [Compound B16, N-[3-(4-{[4-(2-methoxyethyl)piperazinyl]methyl}phenyl)-4-oxoindeno[2,3-d]pyrazol-5-yl](morpholin-4-ylamino)carboxamide dihydrochloride], the concentration for half-maximal inhibition (IC50) in experiment [1] (kinase panel, 10 μM ATP, read-out: Yes IC50) is < 100 nM; in experiment [1] (setting [4]), < 50 nM; in experiment [2] (kinase panel, 10 μM ATP, read-out: Lyn IC50), < 100 nM; in experiment [2] (setting [5]) it was < 100 nM; in experiment [3] it was < 100 nM.
